Test results reported in patent US20240116946A1 (Gilead Sciences, Inc., priority 2022, published 2024).
Read-outs that look alike come from different tables or passages of the source.

Columns and labels:
SARS-CoV-2-NLuc = test: microbe, parasite or virus in culture; type: cell-based, SARS Coronavirus 2
[1] = molecular target: recombinant SARS-CoV-2 Main protease (Mpro) (Severe acute respiratory syndrome coronavirus 2 (2019-nCoV) (SARS-CoV-2), UniProt P0DTD1); test: Cov Mpro Biochemical IC50 Assay
[2] = recombinant SARS-CoV-2 Mpro 7.5 nM, fluorogenic peptide substrate 40 μM, read-out: MPro IC50
[3] = recombinant SARS-CoV-2 Mpro, fluorogenic peptide substrate, read-out: MPro IC50
[4] = Severe acute respiratory syndrome coronavirus, 48 h, read-out: MPro EC50
[5] = Severe acute respiratory syndrome coronavirus, 48 h; read-out: MPro EC50
[6] = MPro IC50, recombinant SARS-CoV-2 Mpro, fluorogenic peptide substrate

Compound	IC50 [1, 2] [nM]	IC50 [1, 3] [nM]	EC50 (SARS-CoV-2-NLuc; [4]) [nM]	further results
COc1cc(-c2cc3c(s2)c(=O)n(-c2cncc(Cl)c2C)c(=O)n3CCC#N)c(Cl)cc1F (single isomer, unassigned) [Example 1033, 3-[6-(2-chloro-4-fluoro-5-methoxy-phenyl)-3-(5-chloro-4-methyl-3-pyridyl)-2,4-dioxo-thieno[3,2-d]pyrimidin-1-yl]propanenitrile]	420			EC50 (SARS-CoV-2-NLuc; read-out: MPro EC50): 488 nM
O=c1c2sc(-c3cccc4c3CCC4)cc2n(Cc2ccc(O)cc2)c(=O)n1-c1cncc2ccccc12 [Example 169]		5550		EC50 (SARS-CoV-2-NLuc; read-out: MPro EC50): 744 nM
COc1cc(-c2cc3c(s2)c(=O)n(-c2cnc(F)c(C)c2)c(=O)n3CCC#N)c(C#N)cc1F [Example 780]	17.4		53.3	
N#CCCn1c(=O)n(-c2cncc(Cl)c2)c(=O)c2sc(-c3ccc(F)cc3Cl)cc21 [Example 787]	13		33.2	
COc1ccc(C#N)c(-c2cc3[nH]c(=O)n(-c4cncc5ccc(OC)cc45)c(=O)c3cc2F)c1 [Example 429]	2.83		11.2	
Cn1ncc2cncc(-n3c(=O)c4sc(-c5ccccc5C#N)cc4n(CCC#N)c3=O)c21 [Example 782, 2-(1-(2-cyanoethyl)-3-(1-methyl-1H-pyrazolo[4,3-c]pyridin-7-yl)-2,4-dioxo-1,2,3,4-tetrahydrothieno[3,2-d]pyrimidin-6-yl)benzonitrile]	15.5		39.8	
Cc1c(-c2cccc(Cl)c2-c2ccc3c(=O)n(-c4cncc5ccccc45)c(=O)[nH]c3c2)cn2ncnc2c1C [Example 233]		12.3	26.8	
COc1cc(-c2cc3c(s2)c(=O)n(-c2cncc4cnn(C)c24)c(=O)n3CC2CCCN2C)c(Cl)cc1F (centres unmarked) [Example 1071]	102		306	
O=c1[nH]c2cc(-c3ccccc3Cl)sc2c(=O)n1-c1cncc2ccc(N3CC4(C3)CC(F)(F)C4)cc12 [Example 419]	21.1		74.9	
COc1cc(-c2cc3c(s2)c(=O)n(-c2cncc4ccccc24)c(=O)n3CC#N)c(Cl)cc1F (single isomer, unassigned) [Example 633, 2-[6-(2-chloro-4-fluoro-5-methoxy-phenyl)-3-(4-isoquinolyl)-2,4-dioxo-thieno[3,2-d]pyrimidin-1-yl]acetonitrile]	3.22			EC50 (SARS-CoV-2-NLuc; read-out: MPro EC50): 3.29 nM
Cn1cc2ccc(-c3cccc(Cl)c3-c3ccc4c(=O)n(-c5cncc6ccccc56)c(=O)[nH]c4c3)cc2n1 [Example 248]		87.2	40.1	
COc1ccc(C#N)c(-c2cc3[nH]c(=O)n(-c4cncc5ccccc45)c(=O)c3cc2F)c1 (single isomer, unassigned) [Example 438, 2-(6-fluoro-3-(isoquinolin-4-yl)-2,4-dioxo-1,2,3,4-tetrahydroquinazolin-7-yl)-4-methoxybenzonitrile]	< 4.17			EC50 (SARS-CoV-2-NLuc; read-out: MPro EC50): < 11.4 nM
COc1c(C)cncc1-n1c(=O)[nH]c2cc(-c3ccccc3Cl)sc2c1=O [Example 213]		16.4		EC50 (SARS-CoV-2-NLuc; [5]): 31.1 nM
O=c1c2ccc(-c3ccccc3Cl)cc2[nH]c(=S)n1-c1cncc2ccccc12 [Example 239]				EC50 (SARS-CoV-2-NLuc; [5]): 1820 nM; IC50 [1, 6]: 4840 nM
COc1cc(-c2cc3[nH]c(=O)n(-c4cncc5ccccc45)c(=O)c3s2)c(Cl)cc1F (single isomer, unassigned) [Example 556, 6-(2-chloro-4-fluoro-5-methoxyphenyl)-3-(isoquinolin-4-yl)thieno[3,2-d]pyrimidine-2,4(1H,3H)-dione]	3.41			EC50 (SARS-CoV-2-NLuc; read-out: MPro EC50): 2.04 nM
COc1ccc(Cl)c(-c2cc3[nH]c(=O)n(-c4cncc5scc(C)c45)c(=O)c3s2)c1 [Example 609, 6-(2-chloro-5-methoxyphenyl)-3-(3-methylthieno[2,3-c]pyridin-4-yl)thieno[3,2-d]pyrimidine-2,4(1H,3H)-dione]	< 2.54		< 3.39	
COc1cc(-c2cc3[nH]c(=O)n(-c4cncc5ccn(C)c45)c(=O)c3cc2OC)c(C#N)cc1F [Example 683]	8.88		43.7	
N#Cc1ccccc1-c1ccc2c(=O)n(-c3cncc4ccccc34)c(=O)[nH]c2c1 [Example 65, 2-(3-(isoquinolin-4-yl)-2,4-dioxo-1,2,3,4-tetrahydroquinazolin-7-yl)benzonitrile]		108	286	
COc1cc(-c2cc3[nH]c(=O)n(-c4cncc5ccn(C)c(=O)c45)c(=O)c3s2)c(Cl)cc1F [Example 976, 6-(2-chloro-4-fluoro-5-methoxy-phenyl)-3-(6-methyl-5-oxo-2,6-naphthyridin-4-yl)-1H-thieno[3,2-d]pyrimidine-2,4-dione]	8.07		15.4	
COc1ccc(C#N)c(-c2cc3[nH]c(=O)n(-c4cncc5c4CCCO5)c(=O)c3s2)c1 [Example 598]	29.6		150	
Cc1nn(C)cc1-c1cc2[nH]c(=O)n(-c3cncc(C4CC4)c3)c(=O)c2s1 [Example 366]		36800		EC50 (SARS-CoV-2-NLuc; [5]): 32200 nM
COc1cc(-c2cc3[nH]c(=O)n(-c4cncc(C5CC5)c4)c(=O)c3s2)c(Cl)cc1F [Example 753]				EC50 (SARS-CoV-2-NLuc; [5]): 14.6 nM; IC50 ([1]; MPro IC50, recombinant SARS-CoV-2 Mpro 7.5 nM, fluorogenic peptide substrate 40 μM): 6.88 nM

Compound	IC50 [1, 2] [nM]	IC50 [1, 3] [nM]	EC50 (SARS-CoV-2-NLuc; [4]) [nM]	further results
N#Cc1ncccc1-c1ccc2c(=O)n(-c3cncc4ccccc34)c(=O)[nH]c2c1 [Example 62]		904	3150	
COc1cc(-c2cc3[nH]c(=O)n(-c4cncc5ccccc45)c(=O)c3s2)c(C)cn1 [Example 719]	364		938	
COc1cc(-c2cc3[nH]c(=O)n(-c4cncc5c4c(C)cn5C)c(=O)c3s2)c(Cl)cc1F [Example 706]	5.93		6.53	
O=c1[nH]c2cc(-c3ccccc3Cl)ccc2c(=O)n1-c1cncc(C2CC2)c1 [Example 127]				EC50 (SARS-CoV-2-NLuc; [5]): 652 nM; IC50 [1, 6]: 776 nM
CC(C)c1ccccc1-c1ccc2c(=O)n(-c3cncc4ccccc34)c(=O)[nH]c2c1 [Example 52]		12800	3720	
Cc1c(Cl)cccc1-c1cc2[nH]c(=O)n(-c3cncc4ccccc34)c(=O)c2s1 [Example 12]		7450	943	
N#CCCn1c(=O)n(-c2cncc(C#N)c2)c(=O)c2sc(-c3ccccc3Cl)cc21 [Example 1061, 5-(6-(2-chlorophenyl)-1-(2-cyanoethyl)-2,4-dioxo-1,4-dihydrothieno[3,2-d]pyrimidin-3(2H)-yl)nicotinonitrile]	5.07			EC50 (SARS-CoV-2-NLuc; [5]): 14.6 nM
N#Cc1ccc(Cl)c(-c2cc3[nH]c(=O)n(-c4cncc5ccccc45)c(=O)c3s2)c1 [Example 545]	29.4		112	
COc1cc(-c2cc3c(s2)c(=O)n(-c2cncc4cnn(C)c24)c(=O)n3CC(F)F)c(Cl)cc1F [Example 1065, 6-(2-chloro-4-fluoro-5-methoxy-phenyl)-1-(2,2-difluoroethyl)-3-(1-methylpyrazolo[4,3-c]pyridin-7-yl)thieno[3,2-d]pyrimidine-2,4-dione]	7.01			EC50 (SARS-CoV-2-NLuc; [5]): 13.6 nM
O=c1[nH]c2cc(-c3ccccc3Cl)sc2c(=O)n1-c1cncc2ccc(N3CC(F)(F)C3)cc12 [Example 420]	10.8		50.9	
O=c1[nH]c2cc(-c3cccc4c3CCC4)ccc2c(=O)n1-c1cncc2ccccc12 [Example 171, 7-(2,3-dihydro-1H-inden-4-yl)-3-(isoquinolin-4-yl)quinazoline-2,4(1H,3H)-dione]		3790	4200	
COc1cnc(Cl)c(-c2cc3c(s2)c(=O)n(-c2cncc4cccc(F)c24)c(=O)n3CCC#N)c1 (single isomer, unassigned) [Example 1095, 3-(6-(2-chloro-5-methoxypyridin-3-yl)-3-(5-fluoroisoquinolin-4-yl)-2,4-dioxo-3,4-dihydrothieno[3,2-d]pyrimidin-1(2H)-yl)propanenitrile]	55.6			EC50 (SARS-CoV-2-NLuc; read-out: MPro EC50): 123 nM
COc1ccc(Cl)c(-c2cc3[nH]c(=O)n(-c4cncc5ccoc45)c(=O)c3s2)c1 [Example 493]	7.94		33.5	
COCCn1cc2cncc(-n3c(=O)c4sc(-c5cc(OC)c(F)cc5Cl)cc4n(CCC#N)c3=O)c2n1 [Example 914]	4.76		10.9	
O=c1[nH]c2cc(-c3c(Cl)cccc3C3=CCOCC3)sc2c(=O)n1-c1cncc2ccccc12 [Example 522]	9.84		5.1	
O=c1[nH]c2cc(-c3c(Cl)cccc3-c3ccc4c(c3)OCO4)ccc2c(=O)n1-c1cncc2ccccc12 [Example 356]		130	52.2	
O=c1[nH]c2sc(-c3ccccc3)nc2c(=O)n1-c1cncc2ccccc12 [Example 158, 6-(isoquinolin-4-yl)-2-phenylthiazolo[5,4-d]pyrimidine-5,7(4H,6H)-dione]		133	19100	
O=c1[nH]c2cc(-c3ccccc3Cl)sc2c(=O)n1-c1cncc2cccnc12 [Example 133, 6-(2-chlorophenyl)-3-(1,6-naphthyridin-8-yl)thieno[3,2-d]pyrimidine-2,4(1H,3H)-dione]		12.8	27.7	
O=c1[nH]c2cc(-c3ccccc3Cl)sc2c(=O)n1-c1cnccc1N1CCNCC1 [Example 115, 6-(2-chlorophenyl)-3-(4-(piperazin-1-yl)pyridin-3-yl)thieno[3,2-d]pyrimidine-2,4(1H,3H)-dione]		522		EC50 (SARS-CoV-2-NLuc; [5]): 1530 nM
O=c1[nH]c2cc(-c3c(F)cccc3Cl)ccc2c(=O)n1-c1cncc2ccccc12 [Example 162, 7-(2-Chloro-6-fluoro-phenyl)-3-(4-isoquinolyl)-1H-quinazoline-2,4-dione]		344	392	
COc1cc(-c2cc3c(s2)c(=O)n(-c2cnc(F)c(C)c2)c(=O)n3CCC#N)c(Cl)cc1F [Example 891]	9.38		29.6	
